# Data reported in paper PMC8067632, “Assessment and Development of the Antifungal Agent Caspofungin for Aerosolized Pulmonary Delivery” (Pharmaceutics, 2021).
# What was measured:
# Format in all cases: cell-based
# [1] = system: Candida albicans ATCC44858; assay: microbe, parasite or virus in culture; details: Candida albicans, ATCC44858; CLSI broth microdilution, visual, duplicate; read-out: MIC
# Protocol: (§1) Antifungal potency of the test article(s) was measured using the in vitro broth microdilution assay under test conditions described by the Clinical and Laboratory Standards Institute. Minimum Inhibitory Concentration (MIC) is defined as the lowest concentration of an agent that causes a specified reduction in visible growth of the microorganism. Minimum Effective Concentration (MEC) is defined as the lowest concentration of an agent that leads to the growth of small, rounded, compact hyphal forms, as compared to the hyphal growth typically seen in the growth control well. MIC values were determined for 9 Candida spp., and MEC values were determined for filamentous fungus species (Aspergillus fumigatus and Trichophyton rubrum). Details of the test article preparations and methodologies are described in Supplementary Material S1.
# (§2) Following incubation, the test plates were visually examined and wells were scored for growth or complete growth inhibition to define the MIC values. Microscopy examination was used to determine the MEC values. Each test substance was evaluated in duplicate and the results are the duplicate test values. Vehicle-control and an active reference agent were used as blank and positive controls, respectively. […]
# (§3) S1. In Vitro Testing, Test Article Preparations
# (§4) The 5 mg/mL stock solution was prepared as the following. The refrigerated vial was equilibrated to room temperature. Test vial was reconstituted aseptically with 10.5 mL 0.9% NaCl. The powder was dissolved completely, mixing until a clear solution was ob-tained. The final concentration was 5.0 mg/mL of caspofungin freebase. The reconstituted solution was stable for 1 hr at room temperature. The 5 mg/mL stock solution was then […]
# (§5) The refrigerated vial was equilibrated to room temperature. The powder was dis-solved completely, mixing until a clear solution was obtained. Test vial was reconstituted aseptically with 1.8 mL 0.9% NaCl. The white to off-white powder was dissolved com-pletely, mixing gently until a clear solution was obtained. The final concentration was 5.0 mg/mL of caspofungin freebase. The reconstituted solution was used within 1 hr at room temperature. The 5 mg/mL stock solution was then diluted with 0.9% NaCl to prepare the […]
# (§6) 1.3. Caspofungin Diacetate
# (§7) The 5 mg/mL API stock solution was prepared as the following. The refrigerated vial was equilibrated to room temperature. Test vial was filled aseptically with 1.8 mL 0.9%
# (§8) NaCl. The powder was dissolved completely, mixing until a clear solution was obtained.
# (§9) The final concentration was 5.0 mg/mL of caspofungin freebase. The reconstituted solu-tion was used within 1 hr at room temperature. The 5 mg/mL stock solution was then […]
# (§10) g compound, corresponding to 1.2 mg active compound with a correction factor of 2.40 was added 0.375 mL of water for injection to generate the 3.2 mg/mL working stock solution for testing. The 3.2 mg/mL working stock solution was 2-fold diluted seri-ally in 0.9% NaCl to prepare a total of eleven 50-fold stock solutions, concentrations rang-ing from 3.2 to 0.003 mg/mL. A 4 μL aliquot of each dilution was added to 196 μL of broth medium seeded with the organism suspension in wells of a 96 well plate (fungal cell count: 1 x 10^3 to 1 x 10^4 colony forming units per mL). The final volume was 200 μL in each […]
# [2] = system: Candida albicans ATCC90028 + 50%human serum; assay: microbe, parasite or virus in culture; details: Candida albicans, ATCC90028, CLSI broth microdilution, duplicate, read-out: MIC
# Protocol: as §1, §2, §3, §4, §5, §6, §7, §8, §9, §10
# [3] = system: Candida albicans ATCC90028; assay: microbe, parasite or virus in culture; details: Candida albicans, ATCC90028; CLSI broth microdilution, visual, duplicate; read-out: MIC
# Protocol: as §1, §2, §3, §4, §5, §6, §7, §8, §9, §10
# [4] = system: Candida albicans Azole-R (20183.073); assay: microbe, parasite or virus in culture; details: Candida albicans; CLSI broth microdilution, azole-resistant strain, duplicate; read-out: MIC
# Protocol: as §1, §2, §3, §4, §5, §6, §7, §8, §9, §10
# [5] = system: Candida albicans Azole-R (20186.025); assay: microbe, parasite or virus in culture; details: Candida albicans
# Protocol: as §1, §2, §3, §4, §5, §6, §7, §8, §9, §10
# [6] = system: Candida glabrata ATCC 36583; assay: microbe, parasite or virus in culture; details: Nakaseomyces glabratus, ATCC36583; CLSI broth microdilution, duplicate; read-out: MIC
# Protocol: as §1, §2, §3, §4, §5, §6, §7, §8, §9, §10
# [7] = system: Candida krusei ATCC 6258; assay: microbe, parasite or virus in culture; details: Pichia kudriavzevii, ATCC6258; CLSI broth microdilution, duplicate; read-out: MIC
# Protocol: as §1, §2, §3, §4, §5, §6, §7, §8, §9, §10
# [8] = system: Candida parapsilosis ATCC 22019; assay: microbe, parasite or virus in culture; details: Lodderomyces parapsilosis, ATCC22019; CLSI broth microdilution, duplicate; read-out: MIC
# Protocol: as §1, §2, §3, §4, §5, §6, §7, §8, §9, §10
# [9] = system: Candida tropicalis ATCC 200956; assay: microbe, parasite or virus in culture; details: Candida tropicalis, ATCC200956; CLSI broth microdilution, duplicate; read-out: MIC
# Protocol: as §1, §2, §3, §4, §5, §6, §7, §8, §9, §10
# [10] = system: Aspergillus fumigatus ATCC 13073; assay: Broth microdilution MEC; details: CLSI broth microdilution, microscopy, duplicate
# Protocol: as §1, §2, §3, §4, §5, §6, §7, §8, §9, §10
# [11] = system: Aspergillus fumigatus ATCC204305; assay: Broth microdilution MEC; details: CLSI broth microdilution, microscopy, duplicate
# Protocol: as §1, §2, §3, §4, §5, §6, §7, §8, §9, §10
# [12] = system: Trichophyton rubrum ATCC 10218; assay: Broth microdilution MEC; details: CLSI broth microdilution, microscopy, duplicate
# Protocol: as §1, §2, §3, §4, §5, §6, §7, §8, §9, §10
smiles,measurement,setting,value
C[C@@H]1[C@H](O)[C@@H](C)/C=C/C=C/C=C/C=C/C=C/C=C/C=C/[C@H](O[C@@H]2O[C@H](C)[C@@H](O)[C@H](N)[C@@H]2O)C[C@@H]2O[C@](O)(C[C@@H](O)C[C@@H](O)[C@H](O)CC[C@@H](O)C[C@@H](O)CC(=O)O[C@H]1C)C[C@H](O)[C@H]2C(=O)O [Amphotericin B],MIC,[1],0.125 µg/mL
same,MIC,[2],0.25 µg/mL
same,MIC,[3],0.125 µg/mL
same,MIC,[4],0.125 µg/mL
same,MIC,[5],0.25 µg/mL
same,MIC,[6],0.125 µg/mL
same,MIC,[7],0.25 µg/mL
same,MIC,[8],0.25 µg/mL
same,MIC,[9],1 µg/mL
same,MEC,[10],0.25 µg/mL
same,MEC,[11],0.5 µg/mL
same,MEC,[12],0.125 µg/mL
